The values that follow come from ChEMBL document CHEMBL5715952 (Oncotarget, 2015).

A short description of assay [1]: Inhibition of CAMKK in human bortezomib-resistant ANBL6 cells assessed as reduction of cell growth incubated for 72 hrs by CellTiter 96 aqueous one solution cell proliferation assay. The class given is cell-based.
The nature of assay [2]: Ratio of IC50 for inhibition of CAMKK in human RPMI-8226 cells assessed as reduction of cell viability to IC50 for inhibition of CAMKK in human melphalan-resistant RPMI-8226 cells assessed as reduction of cell viability. To be noted: time 72 hrs; condition multiple myeloma.
A short description of assay [3]: Inhibition of CAMKK in human RPMI-8226 cells assessed as reduction of cell growth incubated for 72 hrs by CellTiter 96 aqueous one solution cell proliferation assay. The class given is cell-based. To be noted: RPMI-8226, 72 h.
Assay [4] is described as follows: Ratio of IC50 for inhibition of CAMKK in human RPMI-8226 cells assessed as reduction of cell viability to IC50 for inhibition of CAMKK in human RPMI-8226/BR resistant cells assessed as reduction of cell viability. The note with it: condition multiple myeloma.
Assay [5] in a line: Inhibition of CAMKK in human ANBL-6 cells assessed as reduction of cell growth incubated for 72 hrs by CellTiter 96 aqueous one solution cell proliferation assay. The class given is cell-based. The note with it: ANBL-6, 72 h.
Assay [6] is described as follows: Inhibition of CAMKK in Melphalan Resistant human RPMI-8226 cells assessed as reduction of cell growth incubated for 72 hrs by CellTiter 96 aqueous one solution cell proliferation assay. The class given is cell-based. The note with it: Melphalan-resistant RPMI-8226 cell.
Assay [7] is described as follows: Inhibition of CAMKK in human U-266 cells assessed as reduction of cell growth incubated for 72 hrs by CellTiter 96 aqueous one solution cell proliferation assay. To be noted: U-266, 72 h. The class given is cell-based.
Assay [8] is described as follows: Ratio of IC50 for inhibition of CAMKK in human ANBL6 cells assessed as reduction of cell viability to IC50 for inhibition of CAMKK in human ANBL6/BR resistant cells assessed as reduction of cell viability. The note with it: condition multiple myeloma.
A short description of assay [9]: Inhibition of CAMKK in bortezomib Resistant human RPMI-8226 cells assessed as reduction of cell growth incubated for 72 hrs by CellTiter 96 aqueous one solution cell proliferation assay. It counts as cell-based. The note with it: Bortezomib-resistant RPMI-8226, 72 h.
Assay [10] can be described thus: Ratio of IC50 for inhibition of B-RAFV600E/pERK in human RPMI-8226 cells assessed as reduction of cell viability to IC50 for inhibition of B-RAFV600E/pERK in human melphalan-resistant RPMI-8226 cells assessed as reduction of cell viability. The note with it: time 72 hrs; condition multiple myeloma.
Assay [11] is described as follows: Inhibition of B-RAFV600E/pERK in bortezomib Resistant human RPMI-8226 cells assessed as reduction of cell growth incubated for 72 hrs by CellTiter 96 aqueous one solution cell proliferation assay. It counts as cell-based. The note with it: Bortezomib-resistant RPMI-8226, 72 h.
The nature of assay [12]: Inhibition of B-RAFV600E/pERK in human ANBL-6 cells assessed as reduction of cell growth incubated for 72 hrs by CellTiter 96 aqueous one solution cell proliferation assay. It counts as cell-based. The note with it: ANBL-6, 72 h.
Assay [13] in a line: Inhibition of B-RAFV600E/pERK in Melphalan Resistant human RPMI-8226 cells assessed as reduction of cell growth incubated for 72 hrs by CellTiter 96 aqueous one solution cell proliferation assay. It counts as cell-based. To be noted: Melphalan-resistant RPMI-8226 cell.
A short description of assay [14]: Inhibition of B-RAF-V600E/pERK in human RPMI-8226 cells assessed as reduction of cell growth incubated for 72 hrs by CellTiter 96 aqueous one solution cell proliferation assay. The note with it: RPMI-8226, 72 h. It counts as cell-based.
A short description of assay [15]: Ratio of IC50 for inhibition of B-RAFV600E/pERK in human RPMI-8226 cells assessed as reduction of cell viability to IC50 for inhibition of B-RAFV600E/pERK in human RPMI-8226/BR resistant cells assessed as reduction of cell viability. The note with it: condition multiple myeloma.
Assay [16] in a line: Ratio of IC50 for inhibition of B-RAFV600E/pERK in human ANBL6 cells assessed as reduction of cell viability to IC50 for inhibition of B-RAFV600E/pERK in human ANBL6/BR resistant cells assessed as reduction of cell viability. The note with it: condition multiple myeloma.
Assay [17] can be described thus: Inhibition of B-RAFV600E/pERK in human bortezomib-resistant ANBL6 cells assessed as reduction of cell growth incubated for 72 hrs by CellTiter 96 aqueous one solution cell proliferation assay. The class given is cell-based.
The nature of assay [18]: Inhibition of B-RAFV600E/pERK in human U-266 cells assessed as reduction of cell growth incubated for 72 hrs by CellTiter 96 aqueous one solution cell proliferation assay. To be noted: U-266, 72 h. It counts as cell-based.
Assay [19] can be described thus: Inhibition of c-KIT/VEGFR2/B-Raf/RET/PDGFR in human bortezomib-resistant ANBL6 cells assessed as reduction of cell growth incubated for 72 hrs by CellTiter 96 aqueous one solution cell proliferation assay. It counts as cell-based.
Assay [20] can be described thus: Inhibition of c-KIT/VEGFR2/B-Raf/RET/PDGFR in Melphalan Resistant human RPMI-8226 cells assessed as reduction of cell growth incubated for 72 hrs by CellTiter 96 aqueous one solution cell proliferation assay. It counts as cell-based. To be noted: Melphalan-resistant RPMI-8226 cell.
Assay [21] is described as follows: Ratio of IC50 for inhibition of c-KIT/VEGFR2/B-Raf/RET/PDGFR in human ANBL6 cells assessed as reduction of cell viability to IC50 for inhibition of c-KIT/VEGFR2/B-Raf/RET/PDGFR in human ANBL6/BR resistant cells assessed as reduction of cell viability. To be noted: condition multiple myeloma.
Assay [22] can be described thus: Inhibition of c-KIT/VEGFR2/B-Raf/RET/PDGFR in bortezomib Resistant human RPMI-8226 cells assessed as reduction of cell growth incubated for 72 hrs by CellTiter 96 aqueous one solution cell proliferation assay. The note with it: Bortezomib-resistant RPMI-8226, 72 h. The class given is cell-based.
A short description of assay [23]: Ratio of IC50 for inhibition of c-KIT/VEGFR1/B-Raf/RET/PDGFR in human ANBL6 cells assessed as reduction of cell viability to IC50 for inhibition of c-KIT/VEGFR1/B-Raf/RET/PDGFR in human ANBL6/BR resistant cells assessed as reduction of cell viability. To be noted: condition multiple myeloma.
Assay [24] is described as follows: Inhibition of c-KIT/VEGFR1/B-Raf/RET/PDGFR in bortezomib Resistant human RPMI-8226 cells assessed as reduction of cell growth incubated for 72 hrs by CellTiter 96 aqueous one solution cell proliferation assay. It counts as cell-based. To be noted: Bortezomib-resistant RPMI-8226, 72 h.
Assay [25] in a line: Ratio of IC50 for inhibition of c-KIT/VEGFR1/B-Raf/RET/PDGFR in human RPMI-8226 cells assessed as reduction of cell viability to IC50 for inhibition of c-KIT/VEGFR1/B-Raf/RET/PDGFR in human RPMI-8226/BR resistant cells assessed as reduction of cell viability. To be noted: condition multiple myeloma.
Assay [26] is described as follows: Inhibition of c-KIT/VEGFR1/B-Raf/RET/PDGFR in human U-266 cells assessed as reduction of cell growth incubated for 72 hrs by CellTiter 96 aqueous one solution cell proliferation assay. The class given is cell-based. The note with it: U-266, 72 h.
Assay [27] is described as follows: Ratio of IC50 for inhibition of c-KIT/VEGFR2/B-Raf/RET/PDGFR in human RPMI-8226 cells assessed as reduction of cell viability to IC50 for inhibition of c-KIT/VEGFR2/B-Raf/RET/PDGFR in human melphalan-resistant RPMI-8226 cells assessed as reduction of cell viability. The note with it: time 72 hrs; condition multiple myeloma.
Assay [28] can be described thus: Inhibition of c-KIT/VEGFR2/B-Raf/RET/PDGFR in human ANBL-6 cells assessed as reduction of cell growth incubated for 72 hrs by CellTiter 96 aqueous one solution cell proliferation assay. To be noted: ANBL-6, 72 h. It counts as cell-based.
A short description of assay [29]: Inhibition of c-KIT/VEGFR2/B-Raf/RET/PDGFR in human U-266 cells assessed as reduction of cell growth incubated for 72 hrs by CellTiter 96 aqueous one solution cell proliferation assay. It counts as cell-based. To be noted: U-266, 72 h.
Assay [30] can be described thus: Ratio of IC50 for inhibition of c-KIT/VEGFR1/B-Raf/RET/PDGFR in human RPMI-8226 cells assessed as reduction of cell viability to IC50 for inhibition of c-KIT/VEGFR1/B-Raf/RET/PDGFR in human melphalan-resistant RPMI-8226 cells assessed as reduction of cell viability. The note with it: time 72 hrs; condition multiple myeloma.
The nature of assay [31]: Inhibition of c-KIT/VEGFR1/B-Raf/RET/PDGFR in Melphalan Resistant human RPMI-8226 cells assessed as reduction of cell growth incubated for 72 hrs by CellTiter 96 aqueous one solution cell proliferation assay. It counts as cell-based. To be noted: Melphalan-resistant RPMI-8226 cell.
Assay [32] is described as follows: Inhibition of c-KIT/VEGFR1/B-Raf/RET/PDGFR in human ANBL-6 cells assessed as reduction of cell growth incubated for 72 hrs by CellTiter 96 aqueous one solution cell proliferation assay. The class given is cell-based. To be noted: ANBL-6, 72 h.
A short description of assay [33]: Ratio of IC50 for inhibition of c-KIT/VEGFR2/B-Raf/RET/PDGFR in human RPMI-8226 cells assessed as reduction of cell viability to IC50 for inhibition of c-KIT/VEGFR2/B-Raf/RET/PDGFR in human RPMI-8226/BR resistant cells assessed as reduction of cell viability. The note with it: condition multiple myeloma.
Assay [34] can be described thus: Inhibition of c-KIT/VEGFR1/B-Raf/RET/PDGFR in human bortezomib-resistant ANBL6 cells assessed as reduction of cell growth incubated for 72 hrs by CellTiter 96 aqueous one solution cell proliferation assay. It counts as cell-based.
The nature of assay [35]: Inhibition of c-KIT/VEGFR1/B-Raf/RET/PDGFR in human RPMI-8226 cells assessed as reduction of cell growth incubated for 72 hrs by CellTiter 96 aqueous one solution cell proliferation assay. It counts as cell-based. To be noted: RPMI-8226, 72 h.
The nature of assay [36]: Inhibition of c-KIT/VEGFR2/B-Raf/RET/PDGFR in human RPMI-8226 cells assessed as reduction of cell growth incubated for 72 hrs by CellTiter 96 aqueous one solution cell proliferation assay. It counts as cell-based. To be noted: RPMI-8226, 72 h.

Consider `O=C(O)c1ccc2c3c1cccc3c(=O)n1c3ccccc3nc21`, for which the IC50 in assay [1], in assay [3], in [5], in assay [6], in assay [7] and in assay [9] was 10 µM each time. In addition, the “Ratio IC50” value in assay [2], in assay [4] and in assay [8] was 1 throughout.
On to `OCCn1cc(-c2ccc3c(c2)CC/C3=N\O)c(-c2ccncc2)n1`, for which the “Ratio IC50” value in assay [10], in assay [15] and in assay [16] was 1 throughout. The 50% inhibitory concentration (IC50) in assay [11], in [12], in assay [13], in assay [14], in assay [17] and in assay [18] was 10 µM each time.
For the molecule `CNC(=O)c1cc(Oc2ccc(NC(=O)Nc3ccc(Cl)c(C(F)(F)F)c3)c(F)c2)ccn1` [REGORAFENIB], the IC50 (usually the point on the concentration scale where inhibition reaches its midpoint) in assay [19] stood at 6.17 µM; in [20], 3.55 µM; in [22] it was 2.76 µM; in assay [24], 2.76 µM; in assay [26] it was 10 µM; in assay [28] it was 9.12 µM. In addition, the half-inhibitory concentration (IC50) in [29] is 10 µM; in assay [31] it was 3.55 µM; in [32], 9.12 µM; in assay [34], 6.17 µM; in assay [35], 4.07 µM; in assay [36], 4.07 µM. In addition, the “Ratio IC50” value in assay [21] was 1.48; in assay [23], 1.48; in [25], 2.45; in assay [27], 1.1; in [30] it was 1.1; in [33], 2.45.
